This note sets out measurements from US20110293746A1, “Modulation of Gsk-3Beta and Method of Treating Proliferative Disorders” (Agency For Science, Technology and Research, priority 2004, published 2011).

Assay type in all cases: cell-based, Human
Series [1] has as its system HCT116 cells. Kind of series: FACS analysis of DNA content (sub-G1 apoptotic fraction). How it is done:
(§1) Cell culture and drug treatments: Human colon cancer cell line HCT116 and its derived isogenic p53^−/−, Puma^−/−, Bax^−/− and p53-inducible DLD cell lines were kindly provided by Dr. Bert Vogelstein (Johns Hopkins University, MD). RKO and RKO/E6 cells were from ATCC. Cells were cultured in DMEM containing 10% FBS. All culture reagents and media were from Invitrogen. 5-Fluorouracil, Adriamycin, etoposide and lithium chloride were purchased from Sigma. GSK-3β specific small molecule inhibitor LY2119301 was a gift from Eli Lilly (Indianapolis) and SB-216763, SB-415283 were obtained from BIOMOL.
(§2) FACS analysis of DNA content and caspase-3 activity: Cells were harvested and fixed in 70% ethanol. Fixed cells were stained with propidium iodide (50 μg/ml) after treatment with RNase (100 μg/ml). The stained cells were analyzed for DNA content by fluorescence-activated cell sorting (FACS) in a FACScalibur™ (Becton Dickinson Instrument, San Jose, Calif.). Cell cycle fractions were quantified using the CellQues™ software (Becton Dickinson). To measure caspase-3 activity, cells were fixed with Cytofix/Cytoperm™ solution (BD PharMingen) as instructed, and then stained with FITC-conjugated rabbit anti-active caspase-3 monoclonal antibody (BD PharMingen). Quantification of cells positive for the caspase-3 detection was performed by flow cytometry.

The test system of the next series is HCT116 p53 −/− cells. Described as above. How it is done: as §1, §2
A further series relates to RKO cells. The experiment in a line: FACS apoptosis (sub-G1). The settings on record: p53 wild-type, with ADR. How it is done:
as §1, §2

The test system of the next series is RKO/E6 cells. Kind of series: FACS apoptosis (sub-G1). The conditions noted are these: p53-inactive, with ADR. Here is the method: as §1, §2
Series [2] has as its system p53 and p53 targets in HCT116 cells. The experiment in a line: Immunoblot analyses of p53 and p53 targets. Here is the method: (§3) Western blotting, immunoprecipitation and microarray analysis: Cells were scraped, collected and lysed as described previously (Yu, Q., et al. Cancer Res, 62: 5743-5748, 2002). Briefly, cells were lysed with cell lysis buffer (0.3% NP40, 1 mM EDTA, 50 mM Tris-HCl (pH 7.4), 2 mM EGTA, 1% Triton X-100, […], 25 mM NaF, 1 mM Na3VO4, 2 mM AEBSF, 5 μg/ml aprotinin, 1 μg/ml leupeptin) for 30 minutes on ice, and the lysates were clarified by centrifugation at 12,000×g for 15 minutes at 4° C. Protein concentration was quantified (Bio-Rad, Hercules, Calif.) and protein samples (50 μg) were separated by SDS/PAGE and transferred onto Immobilon™ membranes (Millipore, Bedford, Mass.). Antibodies against the following proteins were used: p53 (DO-1), p21, PARP, GSK-α/β, α-Tubulin, and β-actin (Santa Cruz Biotechnology), Puma (Ab-1, Oncogene), Bax (Sigma), phosphor-(Ser9/21)-GSK-3α/β and Caspase-9 (Cell Signaling Technologies), phosphor-(Tyr216/279)-GSK-3α/β (Upstate Biotechnologies), cytochrome c (BD PharMingen). To detect Bax conformational change, cells were lysed in 1% Chaps buffer and the soluble fraction was immunoprecipitated with anti-Bax monoclonal antibody (6A7, BD, PharMingen), followed by immunoblotting with anti-Bax polyclonal antibody. Microarray analysis was performed as described (Kho, P. S., et al. J Biol Chem, 279: 21183-21192, 2004).
(In general: Immunoblotting shows a protein as a band on a membrane.)

The test system of series [3] is p53-responsive genes in HCT116. Kind of series: Microarray analysis of p53-responsive genes. The settings on record: concurrent treatment with ADR and LY2119301. How it is done: as §3
Another series deals with LoVo cells. Kind of series: Apoptosis upon DNA damage. The settings on record: p53 wild-type, no Bax protein; data not shown.
In series [4] the test system is Bax. The experiment in a line: Bax conformational activation (IP with 6A7 antibody, Western blot). The settings on record: co-treatment with LY2119301 and ADR, etoposide or 5-FU, 24 h. How it is done:
as §3

The subject of series [5] is Bax. Kind of series: Bax conformational activation (IP with 6A7 antibody, Western blot) in HCT116 p53 −/− cells. The settings on record: same conditions. Here is the method: as §3
Series [6] concerns HCT116 cells. Kind of series: Western blots of cytosolic fractions: cytochrome c release and caspase-9 processing. The conditions noted are these: after DNA damage (ADR or etoposide) in presence of LY2119301. Here is the method: as §3, with “2004). […]” for “2004).”
In the next series the test system is HCT116 Bax −/− cells. The experiment in a line: Mitochondrial membrane potential by JC-1 staining and FACS. The conditions noted are these: co-treated with LY2119301 and genotoxic treatments. How it is done:
(§4) Measurement of mitochondrial permeability transition: Cells were harvested by centrifugation at 300×g at 4° C. for 5 min. Mitochondrial permeability transition was determined by staining the cells with JC-1 (BD PharMingen) according to the manufacturer's instructions. Mitochondrial permeability transition was quantified by flow cytometric determination of cells with decreased red fluorescence, i.e. with mitochondria displaying a lower membrane potential (ΔΨm). Data are given in percentage of cells with low ΔΨm.

A further series concerns HCT116 cells (Bax+/+). The description is as above. The conditions noted are these: co-treated with LY2119301 and genotoxic treatments. Here is the method:
as §4

The subject of another series is p53 in HCT116 cells. Kind of series: p53 accumulation in cytosol and mitochondria (subcellular fractionation, Western blot). The settings on record: in the presence of LY2119301, etoposide 24 h. How it is done:
as §3
Subcellular fractionation: Cells were lysed in mitochondria lysis buffer (210 mM Mannitol, 70 mM Sucrose, 10 mM Hepes (pH, 7.4), 1 mM EDTA, protease inhibitor cocktail) with a Dounce homogenizer and subjected to centrifugation at 1000×g to pellet the nuclei. Post-nuclear supernatant was centrifuged at 10,000×g to pellet the mitochondria-enriched heavy membrane fraction, and the resulting supernatant was further centrifuged to obtain cytosolic fraction. Total proteins (30 μg) from cytosolic or mitochondrial fractions were subjected to immunoblot analysis.

Where [7] appears, read: with ADR, etoposide or 5-FU, HCT116 (LY2119301 also RKO).

“Also recorded” adds a separate entry of the source.

For the compound `CN1CCN(c2ccc(NCCNc3ccc([N+](=O)[O-])c(N)n3)nc2-c2ccc(Cl)cc2Cl)C(=O)C1` [LY2119301], in the series with HCT116 cells [1] (5-FU in presence of LY2119301), the 5-FU-induced apoptosis result is on record as “greatly sensitized”. For the same compound, the “apoptosis in response to other DNA damaging agents” value with HCT116 cells [1] (LY2119301 with etoposide (10 μM) or camptothecin (100 nM), 24 h) is recorded as “triggered p53-dependent apoptosis; also recorded: robust apoptosis”. In addition, in the series on HCT116 cells [1] (co-treatment ADR (1 μM) and LY2119301 (5 μM), 24 h), the “cell death, sub-G1 population” value is given as about 59%. The “increase in apoptosis induction by 5-FU” value in the series on HCT116 cells [1] (dose-effect experiments, 5-FU in presence of LY2119301) is on record as 10 fold. Besides, in the series on HCT116 cells [1] (with ADR), the “concentration able to induce apoptosis in ADR-treated cells (as low as)” value worked out at 250 nM. The 5-FU-induced apoptosis entry in the series with HCT116 p53 −/− cells (5-FU in presence of LY2119301, cells null for p53) was “no increased apoptosis”. Also, the “synergistic induction of cell death” value in the series on HCT116 p53 −/− cells (ADR and LY2119301 co-treatment, 24 h, p53 knockout) was “not seen”. Also, the “apoptotic effect on the p53 response” value in the series with RKO cells is recorded as “observed”. Moreover, in the series with RKO/E6 cells, the “apoptotic effect on the p53 response” value was “not”. Further, in series [2] (HCT116 and RKO), the Bax levels result was “no effect”. Further, in [2] (cells treated with genotoxic agents), the “cleavage of PARP” value is “remarkably increased”. In addition, in [2] (setting [7]), the “p53-mediated p21 induction” value was “prevents; also recorded: impaired”; the “p53 accumulation / stability in response to DNA damage” value is “prevents; also recorded: markedly and consistently impaired”. In addition, the “induction of Puma” value in [2] (with chemotherapeutic agents, HCT116 and RKO) is “impaired”. Besides, the “induction of p53 responsive genes” value in series [3] is listed as “uniformly attenuated”. The “apoptosis induced by LY2119301 upon DNA damage” value with LoVo cells was “resistant”. In addition, the “levels of conformationally active Bax” value in the series with Bax [4] is given as “dramatically increased”. Moreover, the Bax conformation entry with Bax [5] is given as “no detectable change”. Moreover, in the series on HCT116 cells [6], the “caspase 9 processing” value is on record as “evident” and the cytochrome c release result is listed as “increased”. The “reduction of mitochondrial membrane potential” value in the series with HCT116 Bax −/− cells is recorded as “not”. Moreover, in the series on HCT116 cells (Bax+/+), the mitochondrial membrane potential entry was “significant reduction”. Further, in the series on p53 in HCT116 cells, the “etoposide-induced p53 accumulation in cytosol” value is given as “similarly decreased” and the “etoposide-induced p53 accumulation in mitochondria” value is given as “similarly decreased”.
